Results reported in patent US11691992B2 (Anacor Pharmaceuticals, Inc., priority 2017, dated 2023).

Experiments:
Assay type in all cases: cell-based
[1] = test system: luciferase-expressing L. major parasites developing intracellularly inside RAW 264.7 macrophages; assay: Leishmania major intracellular amastigote assay in RAW 264.7 macrophages (luciferase); settings: RAW264.7, 96 hours, read-out: IC50: I Org. intracellular amastigote Growth L. major, 4 d
Source text: Example 107. Assay for Leishmania major Intracellular Amastigote Assay in RAW 264.7 Macrophages
The intracellular amastigote assay is a microtiter plate drug sensitivity assay that uses the activity of luciferase as a measure of proliferation of luciferase-expressing L. major parasites developing intracellularly inside RAW 264.7 macrophages in the presence of antileishmanial drugs or experimental compounds. (Buckner, F. S., and A. J. Wilson. Am J Prop Med Hyg, 2005, 72(5): 600-605.) As the activity of luciferase and its associated luminescence after addition of the substrate, luciferin, is relative to parasite growth, a test compound that inhibits the growth of the parasite will result in a lower luminescence. The luciferase-expressing L. major parasite used in this assay is genetically modified by adding the luciferase coding region to the pLEXSY-hyg2 vector (Jena Biosciences). The luciferase expression construct was created by digesting the luciferase coding region (1.66 kbp) of pGL3-Basic (Promega) by using two restriction enzymes, NcoI/EagI, followed by electrophoretic separation of the luciferase coding region on a 1% agarose gel. The luciferase coding region was then ligated into pLEXSY-hyg2 vector (Jena Biosciences) which had previously been digested with NcoI/NotI. The vector was linearized with SwaI and subsequently gel purified prior to transfection into L. major parasites. Transfections were carried out by electroporation at 480V, 13Ω, and 500 μF (0.4 mL of 1×10^8 parasites/mL, and 0.1 mL of 10 μg DNA). Selection for transfectants was then carried out using hygromycin B (100 μg/mL). RAW 264.7 macrophages were cultured in DMEM media (ATCC Cat #30-2002) supplemented with heat-inactivated 10% FBS (Invitrogen Cat #10438-034). To begin the assay, macrophages were harvested from culture by removing all spent media, adding in 10 mL fresh media, scraping cells, and counted using Trypan Blue. The cells were resuspended in DMEM/10% HIFBS media at 2.0×10^5 cells/mL, and then dispensed in a volume of 50 μL to yield a final concentration of 10,000 macrophages/well in 384 well tissue-culture treated sterile white plates (Nunc Cat #12-565-343) using a Tecan EVO Freedom robotics system. The plates were then incubated at 37° C. overnight in 5% CO2 atmosphere for 24 hours. After overnight incubation, the media was removed from each well using the Tecan EVO Freedom robot, and L. major promastigotes were added to each well and allowed to invade the RAW macrophages. Promastigotes were cultured in Schneider's medium (Invitrogen Cat #11720-067) supplemented with 20% heat inactivated FBS. Metacyclic stage promastigotes provide the best invasion for this assay, and cultures should be grown to increase the percentage of metacyclic promastigotes for best results. Promastigotes were harvested from culture, counted, suspended at 2×10^6 promastigotes/mL in DMEM/HIFBS media, and 100,000 promastigotes were dispensed per well in a volume of 50 μL. After overnight incubation, the media was removed from each well using the Tecan Freedom EVO robot, and each well was subsequently washed three times with 40 μF of fresh DMEM/HIFBS medium to remove all extracellular promastigotes. After the third wash, 69.2 μF of DMEM/HIFBS medium was added to each well using the Tecan EVO Freedom robot. Drug plates were prepared with the Tecan EVO Freedom using sterile 96 well plates containing twelve duplicate two-fold serial dilutions of each test compound suspended in DMSO. 7.8 μF of diluted test compound was added to the 69.2 μF of media present in each well providing a 10 fold final dilution of compound. The final concentration range tested was 0.5 to 10,000 ng/ml for all assays. The plates were next incubated at 37° C. and 5% CO2 for 96 hours. After 96 hours of incubation, 7.5 μF of a luciferin solution (Caliper Fife Science) diluted to 150 μg/mF was added to each well, and the plates were incubated for 30 minutes at 37° C., in the dark. […]

[2] = test system: promastigote forms of L. major; assay: Leishmania major promastigote growth inhibition assay (Alamar Blue); settings: promastigotes, 44 hours + 4 hours Alamar Blue, read-out: IC50: I Org. promastigote Growth L. major, 2 d
Source text: Example 108. Leishmania major Promastigote Growth Inhibition Assay
The promastigote assay is a microtiter plate drug sensitivity prescreen assay used to determine antileishmanial activity of candidate drugs against promastigote forms of L. major. (Shadow et al., PLOS Neglected Tropical Diseases, 2009, e311.) Alamar Blue, or resazurin, is a non-fluorescent indicator dye that is converted to bright red-fluorescent resorufin via the activity of mitochondrial reductases. As the activity of mitochondrial reductases is reduced in cells that are dead or dying, and the intensity of the fluorescence is relative to cell number, a test compound that kills or inhibits growth of a particular target cell, such as L. major, will result in a lower production of fluorescent signal. Pre-dosed microtiter drug plates for use in the promastigote drug prescreen assay were produced using sterile 384-well black optical bottom tissue culture plates (Nunc Cat #12-565-344). Candidate drugs were diluted in dimethyl sulfoxide in four 96-well plates to either 10,000 ng/ml or 1,000 ng/ml, and 4.25 μL of diluted drug was subsequently dispensed into each well of a 384-well plate. Duplicate 384 well plates were made at each test concentration (10,000 ng/mL and 1,000 ng/mL) and amphotericin B was used as a batch control. The Tecan EVO Freedom liquid handling system (Tecan US, Inc., Durham, N.C.) was used to produce all drug assay plates and conduct all pipetting operations for this assay. L. major parasites were cultured in Schneider's medium (Lonza Cat #04-351Q) supplemented with 20% heat inactivated FBS (Invitrogen Cat #16140-089). Promastigotes in early log growth phase were harvested from culture, counted, suspended at 1.32×10^5 cells/mF and 5,000 promastigotes were dispensed into each well of the 384 well plate in a volume of 38.8 μL. The 384 well plates were subsequently incubated at 28° C. for 44 hours. 8.4 μF of Alamar Blue (Promega, Cat #G8081) was added to each well, the plates were subsequently incubated at 28° C. and 5% CO2 for 4 hours and then examined for the relative fluorescence units (RFU) per well using the Tecan Genios Plus (Tecan US, Inc., Durham, N.C.) with excitation set at 560 nm and emission set at 590 nm. The relative fluorescence from each well was used to determine the percent growth inhibition of each candidate compound tested. Compounds with 50% or greater inhibition of growth were selected for further analysis to determine IC50 values.

[3] = test system: TdTomato-modified T. cruzi (CL strain) in Vero cells; assay: In vitro IC50 measurement of T. cruzi amastigote killing using TdTomato-modified T. cruzi (CL strain); settings: Trypanosoma cruzi, 72 h, fluorescence, read-out: IC50: I Org. amastigote Growth T. cruzi CL TdTomato, 3 d
Description: Example 112. In Vitro IC50 Measurement of T. cruzi Amastigote Killing Using TdTomato-Modified T. cruzi (CL Strain)
The T. cruzi parasites used in this assay were genetically modified to express Td Tomato fluorescent protein. Vero cells (African green monkey kidney epithelial cells) were harvested from continuous cultures using trypsin and added to the inner 60 wells of 96-well Greiner Bio One plates (plate catalog #655090) at 200 ul/well of […]. Cells were allowed to adhere for 1 h before infection with T. cruzi. T. cruzi for infection were harvested from previously-infected Vero cells, washed, pelleted and resuspended at 5×10^6/mL. 50 uL of parasites were added to each well containing Vero cells. Compounds were prepared from 5 mM stock concentrations in DMSO to final concentrations in wells ranging from 5 uM to 5 nM. Wells were provided for negative controls, lacking compounds. Plates were placed into a 37° C. incubator for 20 min, then a “Day 0” reading was taken on a Synergy H4 plate reader to record initial fluorescence levels, at 544 (excitation) and 612 nm (emission). 96-well plates were placed in Tupperware containers with wet paper towels and incubated at 37° C. incubator for 72 h. After 72 h plates were reread (Day 3 reading) and data analyzed using Excel and/or Graphpad software. Day 0 fluorescence was subtracted from Day 3 to remove input parasite fluorescence. Growth curves are generated and 50% and 90% inhibitory concentrations are determined by nonlinear regression analysis.

[4] = test system: bloodstream forms of T. b. rhodesiense STIB 900; assay: T. brucei rhodesiense STIB 900 growth inhibition assay; settings: Trypanosoma brucei, 72 h, read-out: IC50: I Org. Growth T. brucei rhodesiense STIB 900, 3 d [uM]
Source text: Example 110. T. brucei rhodesiense STIB 900 Growth Inhibition Assay
The parasite strain used in this assay was isolated in 1982 from a human patient in Tanzania and after several mouse passages cloned and adapted to axenic culture conditions, ((a) Baltz, T., D. Baltz, C. Giroud, and J. Crockett. EMBO Journal, 1985, 4:1273-1277. (b) Thuita, J. K., S. M. Karanja, T. Wenzler, R. E. Mdachi, J. M. Ngotho, J. M. Kagira, R. Tidwell, and R. Brun. Acta Tropica 2008, 108:6-10.) Minimum Essential Medium (50 μl) supplemented with 25 mM HEPES, 1 g/l additional glucose, 1% MEM non-essential amino acids (100×), 0.2 mM 2-mercaptoethanol, 1 mM Na-pyruvate and 15% heat inactivated horse serum was added to each well of a 96-well microtiter plate. Serial drug dilutions of seven 3-fold dilution steps covering a range from 90 to 0.123 μg/ml were prepared. Then 10^4 bloodstream forms of T. b. rhodesiense STIB 900 in 50 μl was added to each well and the plate incubated at 37° C. under a 5% CO2 atmosphere for 72 h. 10 μl Alamar Blue (resazurin, 12.5 mg in 100 ml double-distilled water) was then added to each well and incubation continued for a further 2-4 h, (Raz, B., M. Iten, Y. Grether-Buhler, R. Kaminsky, and R. Brun. Acta Trap 1997, 68:139-47.) Then the plates were read with a Spectramax Gemini XS microplate fluorometer (Molecular Devices Cooperation, Sunnyvale, Calif., USA) using an excitation wave length of 536 nm and an emission wave length of 588 nm. Data were analyzed using the microplate reader software Softmax Pro (Molecular Devices Cooperation, Sunnyvale, Calif., USA).

[5] = test system: L. infantum MHOM/MA(BE)/67 amastigotes in primary peritoneal mouse macrophages; assay: Leishmania infantum intracellular amastigote assay in mouse macrophages; settings: Macrophage, 120 h, read-out: Inhibition of Organism Growth in Leishmania infantum MHOM/MA/BE/67, 5 d [uM]
Description: Example 111. Leishmania infantum Intracellular Amastigote Assay in Mouse Macrophages
L. infantum MHOM/MA(BE)/67 amastigotes were collected from the spleen of an infected donor hamster and used to infect primary peritoneal mouse macrophages. (Kaiser, M., Maes, L., Tadoori, L. P., Spangenberg, T., Ioset, J.-R. J. Biomol. Screen. 2015 20(5), 634-35.) To determine in vitro antileishmanial activity, 3×10^4 macrophages were seeded in each well of a 96-well plate. Culture medium was RPMI-1640 supplemented with L-glutamine (20 mM), 16.5 mM sodium hydrogen carbonate, and 10% fetal calf serum (FCS). After 2 d of outgrowth, 5×10^5 amastigotes/well were added and incubated for 2 h at 37° C. Prediluted samples to be tested were subsequently added, and the plates were further incubated for 5 d at 37° C. and 5% CO2. Total parasite burdens in the well were microscopically assessed after Giemsa staining and expressed as a percentage of the total burden in the blank controls without compound. In treated wells with high amastigote burdens, an overall estimate of the total burden per well was made without discrimination between the number of infected macrophages and the number of amastigotes per infected cell. In treated wells with low burdens, exact counting was performed. The 50% inhibitory concentrations (IC50s) were then generated for each dose response test using GraphPad Prism (GraphPad Software Inc., San Diego, Calif.) using the nonlinear regression (sigmoidal dose-response/variable slope) equation.

[6] = test system: Trypanosoma brucei rhodesiense STIB 900 strain; assay: Trypanosoma brucei rhodesiense STIB 900 screening assay; settings: 72 h, read-out: Swiss TPH T b rhodesiense IC50
Description: Example 114. Trypanosoma brucei rhodesiense STIB 900 Screening Assay Procedure
The Trypanosoma brucei rhodesiense STIB 900 strain was isolated in 1982 from a human patient in Tanzania and after several mouse passages cloned and adapted to axenic culture conditions (Baltz, et al., EMBO Journal 4: 1273-1277 (1985); Thuita, et al., Acta Tropica 108: 6-10 (2008)). Minimum Essential Medium (50 μL) supplemented with 25 mM HEPES, 1 g/L additional glucose, 1% MEM non-essential amino acids (100×), 0.2 mM 2-mercaptoethanol, 1 mM Na-pyruvate and 15% heat inactivated horse serum was added to each well of a 96-well microtiter plate. Serial drug dilutions of seven 3-fold steps covering a range from 90 to 0.123 μg/mL were prepared. Then 10^4 bloodstream forms of T. b. rhodesiense STIB 900 in 50 μL was added to each well and the plate incubated at 37° C. under a 5% CO2 atmosphere for 72 h. 10 μL Alamar Blue (resazurin, 12.5 mg in 100 mL double-distilled water) was then added to each well and incubation continued for a further 2-4 h (Raz, et al., Acta Tropica 68: 139-47 (1997)). Then the plates were read with a Spectramax Gemini XS microplate fluorometer (Molecular Devices Corporation, Sunnyvale, Calif., USA) using an excitation wavelength of 536 nm and an emission wavelength of 588 nm. Data were transferred into the graphic program Softmax Pro (Molecular Devices), which calculated IC50 values.

Row | SMILES | IC50 [1] [µM] | IC50 [2] [nM] | IC50 [3] [nM] | IC50 [4] [µM] | IC50 [5] [µM] | IC50 [6] [nM]
1 | Cc1c(C(=O)Nc2ccc3c(c2)B(O)OC32CCC2)nnn1-c1ccccn1 [Example 27, N-(1-hydroxy-1H-spiro[benzo[c][1,2]oxaborole-3,1′-cyclobutan]-6-yl)-5-methyl-1-(pyridin-2-yl)-1H-1,2,3-triazole-4-carboxamide] | 1.1 to 9.9 | 600 to 2500 | < 600 | – | – | –
2 | COc1cccc(-n2cc(C(=O)Nc3ccc4c(c3)B(O)OC4)nn2)n1 [Example 64, N-(1-hydroxy-1,3-dihydrobenzo[c][12]oxaborol-6-yl)-1-(6-methoxypyridine-2-yl)-1H-1,2,3-triazole-4-carboxamide] | – | – | – | 0.1 to 0.3 | < 3 | < 100
